Target: T1, Pif1 (Saccharomyces cerevisiae, UniProt P07271)
T1 sequence (P07271 46-859): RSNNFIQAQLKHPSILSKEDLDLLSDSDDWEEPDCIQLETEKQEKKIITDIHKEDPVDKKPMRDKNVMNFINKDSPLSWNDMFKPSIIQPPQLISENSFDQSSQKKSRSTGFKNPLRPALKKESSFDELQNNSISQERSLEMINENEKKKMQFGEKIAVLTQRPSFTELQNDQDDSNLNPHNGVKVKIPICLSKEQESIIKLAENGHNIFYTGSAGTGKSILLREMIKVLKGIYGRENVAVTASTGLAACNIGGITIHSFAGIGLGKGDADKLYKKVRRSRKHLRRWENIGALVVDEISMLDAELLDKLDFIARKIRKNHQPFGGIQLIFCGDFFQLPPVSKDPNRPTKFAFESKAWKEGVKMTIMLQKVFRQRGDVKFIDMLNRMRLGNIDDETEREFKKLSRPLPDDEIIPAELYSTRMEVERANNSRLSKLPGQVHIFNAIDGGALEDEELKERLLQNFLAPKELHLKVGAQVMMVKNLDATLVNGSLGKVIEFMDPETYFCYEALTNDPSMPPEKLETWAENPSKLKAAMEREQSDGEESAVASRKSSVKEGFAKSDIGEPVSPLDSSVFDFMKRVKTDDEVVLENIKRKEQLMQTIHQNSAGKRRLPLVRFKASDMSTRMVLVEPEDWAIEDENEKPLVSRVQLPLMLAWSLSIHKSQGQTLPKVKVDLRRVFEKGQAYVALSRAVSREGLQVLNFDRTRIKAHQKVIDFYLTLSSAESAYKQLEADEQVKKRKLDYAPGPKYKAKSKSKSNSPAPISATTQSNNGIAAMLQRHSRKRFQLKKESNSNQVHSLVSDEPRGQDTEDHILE
Assay: stopped-flow Cy3 fluorescence, dissociation of pre-formed Pif1-dT20-Cy3 complex
Format: binding
Conditions: Buffer T200 (200 mM NaCl, pH 8.3, 5 mM MgCl2), 22°C; 1 mM ADP, 0.1 mg/ml heparin

Nc1ncnc2c1ncn2[C@@H]1O[C@H](COP(=O)(O)OP(=O)(O)O)[C@@H](O)[C@H]1O [ADP] was tested, and the “apparent rate of dissociation” value was “This is true also for ADP, the product of ATP hydrolysis (Figure 1b, green)”.
